Source: ChEMBL document CHEMBL1201862, “PubChem BioAssay data set” (2004)
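Values below derive from 48-hour exposures of cells grown in 96-well plates, with endpoints linearly interpolated between the two concentrations bracketing the appropriate inhibition level. At the GI50, growth is halved.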 The source made the active and inactive calls. Rule as the data show it: active = GI50 up to about 1.1 µM and inactive = higher.

What was measured:
Test in all cases: NCI anticancer screen, dose series, 48 h
[1] = test system: ACHN
[2] = test system: OVCAR-5
[3] = test system: Malme-3M
[4] = test system: M19-MEL
[5] = test system: T47D
[6] = test system: RPMI-8226
[7] = test system: OVCAR-3
[8] = test system: SNB-19
[9] = test system: HCT-116
[10] = test system: LXFL 529
[11] = test system: LOX IMVI
[12] = test system: HT-29
[13] = test system: A549
[14] = test system: HCC 2998
[15] = test system: U-251
[16] = test system: M14
[17] = test system: CCRF-CEM
[18] = test system: SW-620
[19] = test system: RXF 393
[20] = test system: NCI-H23
[21] = test system: PC-3
[22] = test system: EKVX
[23] = test system: NCI-H460
[24] = test system: MDA-N
[25] = test system: SNB-75
[26] = test system: KM-20L2
[27] = test system: DLD-1
[28] = test system: NCI-H226
[29] = test system: SF-268
[30] = test system: BT-549
[31] = test system: NCI/ADR-RES
[32] = test system: UACC-62
[33] = test system: SN12C
[34] = test system: OVCAR-8
[35] = test system: Hs-578T
[36] = test system: COLO 205
[37] = test system: HOP-92
[38] = test system: UACC-257
[39] = test system: SNB-78
[40] = test system: SR
[41] = test system: K562
[42] = test system: SK-MEL-2
[43] = test system: KM12
[44] = test system: DMS-114
[45] = test system: NCI-H522
[46] = test system: IGROV-1
[47] = test system: HCT-15
[48] = test system: XF498
[49] = test system: MDA-MB-231
[50] = test system: HL-60
[51] = test system: SK-MEL-28
[52] = test system: MOLT-4
[53] = test system: TK-10
[54] = test system: CAKI-1
[55] = test system: RXF 631
[56] = test system: SF-295
[57] = test system: A498
[58] = test system: MDA-MB-435
[59] = test system: HOP-62
[60] = test system: SF-539
[61] = test system: MCF7
[62] = test system: SK-MEL-5
[63] = test system: HOP-18
[64] = test system: SK-OV-3
[65] = test system: UO-31
[66] = test system: 786-0
[67] = test system: DU-145
[68] = test system: OVCAR-4
[69] = test system: DMS-273

CCCCC/C=C1\CCC(CN2CCOCC2)C1=O (stereo not drawn)
GI50 [1]: 15.5 µM (inactive)
GI50 [2]: 18.6 µM (inactive)
GI50 [3]: 9.62 µM (inactive)
GI50 [4]: 19 µM (inactive)
GI50 [5]: 2.72 µM (inactive)
GI50 [6]: 0.449 µM (active)
GI50 [7]: 5.9 µM (inactive)
GI50 [8]: 16.8 µM (inactive)
GI50 [9]: 9.35 µM (inactive)
GI50 [10]: 5.32 µM (inactive)
GI50 [11]: 4.84 µM (inactive)
GI50 [12]: 10.9 µM (inactive)
GI50 [13]: 20.7 µM (inactive)
GI50 [14]: 12.5 µM (inactive)
GI50 [15]: 10.8 µM (inactive)
GI50 [16]: 6.7 µM (inactive)
GI50 [17]: 2.9 µM (inactive)
GI50 [18]: 3.2 µM (inactive)
GI50 [19]: 5.66 µM (inactive)
GI50 [20]: 11.2 µM (inactive)
GI50 [21]: 16.9 µM (inactive)
GI50 [22]: 17.5 µM (inactive)
GI50 [23]: 22.1 µM (inactive)
GI50 [24]: 8.24 µM (inactive)
GI50 [25]: 14.8 µM (inactive)
GI50 [26]: 13.8 µM (inactive)
GI50 [27]: 5.94 µM (inactive)
GI50 [28]: 16.9 µM (inactive)
GI50 [29]: 12.2 µM (inactive)
GI50 [30]: 14.7 µM (inactive)
GI50 [31]: 3.94 µM (inactive)
GI50 [32]: 12.4 µM (inactive)
GI50 [33]: 15.2 µM (inactive)
GI50 [34]: 7.26 µM (inactive)
GI50 [35]: 4.25 µM (inactive)
GI50 [36]: 3.67 µM (inactive)
GI50 [37]: 15.7 µM (inactive)
GI50 [38]: 9.79 µM (inactive)
GI50 [39]: 12.6 µM (inactive)
GI50 [40]: 3.52 µM (inactive)
GI50 [41]: 2.36 µM (inactive)
GI50 [42]: 13.7 µM (inactive)
GI50 [43]: 3.49 µM (inactive)
GI50 [44]: 13.6 µM (inactive)
GI50 [45]: 2.43 µM (inactive)
GI50 [46]: 13.8 µM (inactive)
GI50 [47]: 5.32 µM
GI50 [48]: 17.4 µM (inactive)
GI50 [49]: 4.7 µM (inactive)
GI50 [50]: 2.26 µM (inactive)
GI50 [51]: 7.91 µM (inactive)
GI50 [52]: 2.43 µM (inactive)
GI50 [53]: 7.59 µM (inactive)
GI50 [54]: 5.28 µM (inactive)
GI50 [55]: 12.1 µM (inactive)
GI50 [56]: 16.8 µM (inactive)
GI50 [57]: 17.7 µM (inactive)
GI50 [58]: 5.25 µM (inactive)
GI50 [59]: 23.1 µM (inactive)
GI50 [60]: 14.8 µM (inactive)
GI50 [61]: 1.6 µM (inactive)
GI50 [62]: 15.4 µM (inactive)
GI50 [63]: 14.2 µM (inactive)
GI50 [64]: 18.5 µM (inactive)
GI50 [65]: 12.4 µM (inactive)
GI50 [66]: 2.58 µM (inactive)
GI50 [67]: 14.6 µM (inactive)
GI50 [68]: 16.2 µM (inactive)

CCNC(=O)O/N=C1\CCC2[C@@H]3CC=C4C[C@@H](OC(=O)NCC)CC[C@]4(C)C3CC[C@]12C (stereo partly drawn)
GI50 [1]: 1.38 µM (inactive)
GI50 [2]: 2.58 µM (inactive)
GI50 [3]: 0.267 µM (active)
GI50 [4]: 1.65 µM (inactive)
GI50 [6]: 1.46 µM (inactive)
GI50 [7]: 2.21 µM (inactive)
GI50 [8]: 0.495 µM (active)
GI50 [9]: 0.57 µM (active)
GI50 [10]: 1.01 µM (active)
GI50 [11]: 0.537 µM (active)
GI50 [12]: 2.86 µM (inactive)
GI50 [13]: 2.16 µM (inactive)
GI50 [14]: 4.68 µM (inactive)
GI50 [15]: 2.09 µM (inactive)
GI50 [16]: 1.31 µM (inactive)
GI50 [18]: 3.61 µM (inactive)
GI50 [19]: 3.42 µM (inactive)
GI50 [20]: 1.08 µM (active)
GI50 [22]: 0.735 µM (active)
GI50 [23]: 1.83 µM (inactive)
GI50 [25]: 2.69 µM (inactive)
GI50 [26]: 2.44 µM (inactive)
GI50 [27]: 6.71 µM (inactive)
GI50 [29]: 2.94 µM (inactive)
GI50 [69]: 1.22 µM (inactive)
GI50 [32]: 0.951 µM (active)
GI50 [33]: 2.65 µM (inactive)
GI50 [34]: 4.03 µM (inactive)
GI50 [36]: 0.387 µM (active)
GI50 [37]: 3.08 µM (inactive)
GI50 [38]: 0.422 µM (active)
GI50 [41]: 0.769 µM (active)
GI50 [42]: 2.13 µM (inactive)
GI50 [43]: 2.9 µM (inactive)
GI50 [44]: 0.358 µM (active)
GI50 [45]: 1.57 µM (inactive)
GI50 [46]: 4.43 µM (inactive)
GI50 [47]: 2.15 µM
GI50 [48]: 0.0792 µM (active)
GI50 [51]: 3.19 µM (inactive)
GI50 [52]: 1.05 µM (active)
GI50 [53]: 1.77 µM (inactive)
GI50 [54]: 1.88 µM (inactive)
GI50 [55]: 4.26 µM (inactive)
GI50 [56]: 0.971 µM (active)
GI50 [57]: 22.3 µM (inactive)
GI50 [59]: 22.3 µM (inactive)
GI50 [60]: 8.95 µM (inactive)
GI50 [62]: 0.807 µM (active)
GI50 [63]: 1.7 µM (inactive)
GI50 [64]: 7.82 µM (inactive)
GI50 [65]: 1.21 µM (inactive)
GI50 [66]: 2.91 µM (inactive)
GI50 [68]: 1.55 µM (inactive)

CCc1cccc(C)c1NC(=O)C(=O)Cc1nc2ccccc2s1
GI50 [1]: > 100 µM (inactive)
GI50 [3]: > 100 µM (inactive)
GI50 [4]: > 100 µM (inactive)
GI50 [7]: > 100 µM (inactive)
GI50 [8]: > 100 µM (inactive)
GI50 [9]: > 100 µM (inactive)
GI50 [10]: > 100 µM (inactive)
GI50 [12]: > 100 µM (inactive)
GI50 [13]: > 100 µM (inactive)
GI50 [14]: > 100 µM (inactive)
GI50 [15]: > 100 µM (inactive)
GI50 [16]: > 100 µM (inactive)
GI50 [17]: > 100 µM (inactive)
GI50 [18]: 0.371 µM (active)
GI50 [19]: > 100 µM (inactive)
GI50 [20]: > 100 µM (inactive)
GI50 [22]: > 100 µM (inactive)
GI50 [23]: > 100 µM (inactive)
GI50 [25]: > 100 µM (inactive)
GI50 [26]: > 100 µM (inactive)
GI50 [27]: > 100 µM (inactive)
GI50 [28]: > 100 µM (inactive)
GI50 [29]: > 100 µM (inactive)
GI50 [69]: > 100 µM (inactive)
GI50 [32]: > 100 µM (inactive)
GI50 [33]: > 100 µM (inactive)
GI50 [34]: > 100 µM (inactive)
GI50 [36]: > 100 µM (inactive)
GI50 [37]: 0.47 µM (active)
GI50 [38]: > 100 µM (inactive)
GI50 [39]: > 100 µM (inactive)
GI50 [40]: > 100 µM (inactive)
GI50 [41]: > 100 µM (inactive)
GI50 [42]: > 100 µM (inactive)
GI50 [43]: > 100 µM (inactive)
GI50 [44]: > 100 µM (inactive)
GI50 [45]: > 100 µM (inactive)
GI50 [46]: 0.444 µM (active)
GI50 [50]: > 100 µM (inactive)
GI50 [51]: > 100 µM (inactive)
GI50 [52]: > 100 µM (inactive)
GI50 [53]: > 100 µM (inactive)
GI50 [54]: > 100 µM (inactive)
GI50 [55]: > 100 µM (inactive)
GI50 [56]: > 100 µM (inactive)
GI50 [57]: > 100 µM (inactive)
GI50 [60]: > 100 µM (inactive)
GI50 [62]: > 100 µM (inactive)
GI50 [63]: > 100 µM (inactive)
GI50 [64]: > 100 µM (inactive)
GI50 [65]: > 100 µM (inactive)
GI50 [66]: > 100 µM (inactive)
GI50 [68]: > 100 µM (inactive)

CC(=O)N(/N=C\c1ccc([N+](=O)[O-])cc1)c1ccccc1
GI50 [1]: > 100 µM (inactive)
GI50 [2]: > 100 µM (inactive)
GI50 [3]: > 100 µM (inactive)
GI50 [4]: > 100 µM (inactive)
GI50 [6]: > 100 µM (inactive)
GI50 [7]: > 100 µM (inactive)
GI50 [8]: > 100 µM (inactive)
GI50 [9]: > 100 µM (inactive)
GI50 [11]: > 100 µM (inactive)
GI50 [12]: > 100 µM (inactive)
GI50 [13]: > 100 µM (inactive)
GI50 [14]: > 100 µM (inactive)
GI50 [15]: > 100 µM (inactive)
GI50 [16]: > 100 µM (inactive)
GI50 [17]: > 100 µM (inactive)
GI50 [18]: > 100 µM (inactive)
GI50 [20]: > 100 µM (inactive)
GI50 [22]: > 100 µM (inactive)
GI50 [23]: > 100 µM (inactive)
GI50 [25]: 48.3 µM (inactive)
GI50 [26]: > 100 µM (inactive)
GI50 [27]: > 100 µM (inactive)
GI50 [28]: > 100 µM (inactive)
GI50 [29]: > 100 µM (inactive)
GI50 [69]: > 100 µM (inactive)
GI50 [32]: > 100 µM (inactive)
GI50 [33]: > 100 µM (inactive)
GI50 [34]: > 100 µM (inactive)
GI50 [36]: > 100 µM (inactive)
GI50 [37]: > 100 µM (inactive)
GI50 [38]: > 100 µM (inactive)
GI50 [39]: > 100 µM (inactive)
GI50 [41]: > 100 µM (inactive)
GI50 [42]: > 100 µM (inactive)
GI50 [43]: > 100 µM (inactive)
GI50 [44]: 99.8 µM (inactive)
GI50 [46]: > 100 µM (inactive)
GI50 [47]: > 100 µM
GI50 [48]: > 100 µM (inactive)
GI50 [51]: > 100 µM (inactive)
GI50 [53]: > 100 µM (inactive)
GI50 [54]: > 100 µM (inactive)
GI50 [55]: > 100 µM (inactive)
GI50 [56]: > 100 µM (inactive)
GI50 [57]: > 100 µM (inactive)
GI50 [59]: > 100 µM (inactive)
GI50 [60]: > 100 µM (inactive)
GI50 [62]: > 100 µM (inactive)
GI50 [63]: > 100 µM (inactive)
GI50 [64]: > 100 µM (inactive)
GI50 [65]: 35.9 µM (inactive)
GI50 [66]: > 100 µM (inactive)
GI50 [68]: > 100 µM (inactive)
